Columns and labels:
[1] = target: T1, HDAC 3 (Homo sapiens, UniProt O15379); assay: Enzyme activity detection of histone deacetylase 3 (fluorogenic substrate deacetylation); format: biochemical; conditions: 0.16 ng/μL HDAC 3, 10 μM substrate; IC50 class
T1 construct: purchased BPS Bioscience #50003
From the text: (§1) During the deacetylation detection of a substrate, the HDAC inhibition activity of the compound of the present invention was detected.
B: Enzyme Activity Detection of Histone Deacetylase 3 (#50003, BPS Bioscience)
(§2) Acetyl on the substrate was removed by the HDAC 3, so that the substrate was activated, and the developing liquid added subsequently could act on the substrate to release the fluorescent group. The size of the fluorescence signal reflected the activity of the HDAC 3. The IC50 detection method for this enzyme was disclosed in Chuping Xu, Elisabetta Soragni Improved Histone Deacetylase Inhibitors as Therapeutics for the Neurdegenerative Disease Friedreich's Ataxia: A New Synthetic Route. The total reaction system (100 μL/well) contained 0.16 ng/μL of HDAC 3, 10 μM of the substrate and the compound in different concentrations. The fluorescence signal was detected online at Ex/Em=360/460. The inhibition effect of the compound was determined from the obtained data, a concentration response curve was obtained by using the inhibition effect and the concentration of the compound, and the value of IC50 was fitted according to a four-parameter model.
(§3) The activities of the compounds prepared in the embodiments against the histone deacetylases 1, 3 and 6 (i.e., HDAC 1, HDAC 3 and HDAC 6) were detected by the above methods, and the test results were shown in Table 2, where the measurements of IC50 of the compounds were classified according to the following description: […]

[2] = test system: HepG2 cells; assay: Cell growth inhibition measurement (CCK-8), HepG2; format: cell-based; conditions: Homo sapiens, HepG2, 72 h, highest EC50 measured during one or multiple operations, read-out: Inhibition activity against cancer cells, HepG2 (EC50)
From the text: (§4) A HepG2 cell strain and an HCT-116 cell strain were purchased from Shanghai Institutes for Biological Sciences; a DMEM high-sugar culture medium and an MEM culture medium were purchased from Hyclone; fetal calf serum was purchased from Gibco; trypsin was purchased from Invitrogen Shanghai; a CCK-8 kit was purchased from Beyotime Institute of Biotechnology; and, the remaining cell culture mediums and other consumables were purchased from Corning China.
(§5) HepG2 cells and HCT-116 cells in the logarithmic growth phase were digested by trypsin. After the counting of uniform cell suspension, the cell density was adjusted as 1500 cells/well by a culture medium containing 10% serum. The cells were re-inoculated to a 96-well cell culture plate, and cultured to a volume of 200 μL at 37° C. in an incubator containing 5% CO2. The cells could be tested after being cultured for 24 h.
(§6) The cells cultured for 24 h were taken out from the incubator. The culture liquid in the well plate was sucked out, and 200 μL of compound solution prepared in the culture medium containing 10% fetal calf serum was added in each well. Five parallel mediums were provided for each concentration, and a DMSO culture medium was used as negative control. The culture mediums were cultured for 72 h at 37° C. in an incubator containing 5% CO2, and CCK-8 detection was performed.
(§7) A serum-free culture medium and CCK-8 solution were prepared, and CCK-8 working solution was prepared at a ratio of 10:1 (this process should be performed in dark place).
(§8) The cells cultured for 72 h were taken out from the incubator. The culture liquid in the well plate was sucked out, and 120 μL of the CCK-8 working solution was added in each well. A well plate without cells was also added with 120 μL of the CCK-8 working solution to serve as blank control. The well plates were cultured for 1 h at 37° C. in an incubator containing 5% CO2 (this process should be performed in dark place).
(§9) The well plates were taken out from the incubator, 100 μL of solution in each well was sucked out and added in a new 96-well plate, and the absorbance was measured at 450 nm (this process should be performed in dark place).
(§10) where Tx is the absorbance of the CCK-8 after the compound acts for 72 h;
(§11) C is the absorbance of the CCK-8 after the negative control wells are cultured for 72 h; and
(§12) B is the absorbance of the CCK-8 in the blank control wells.
(§13) The test results of the compounds prepared according to the embodiments during the measurement are shown in Table 3, wherein the measured highest EC50 of the compounds during one operation or multiple operations is classified according to the following description: […]

[3] = test system: HCT-116 cells; assay: Cell growth inhibition measurement (CCK-8), HCT-116; format: cell-based; conditions: Homo sapiens, HCT-116, 72 h, highest EC50 measured during one or multiple operations, read-out: Inhibition activity against cancer cells, HCT-116 (EC50)
From the text: as §4, §5, §6, §7, §8, §9, §10, §11, §12, §13

[4] = target: HDAC 1 (Homo sapiens, UniProt Q13547); assay: Enzyme activity detection of histone deacetylase 1 (fluorogenic substrate deacetylation); format: biochemical; conditions: 0.28 ng/μL HDAC 1, 10 μM substrate; IC50 class
From the text: as §1
C: Enzyme Activity Detection of Histone Deacetylase 1
as §2, with “1,” for “3,”, “1.” for “3.”, “0.28” for “0.16”
as §3

T1 sequence (O15379 whole entry): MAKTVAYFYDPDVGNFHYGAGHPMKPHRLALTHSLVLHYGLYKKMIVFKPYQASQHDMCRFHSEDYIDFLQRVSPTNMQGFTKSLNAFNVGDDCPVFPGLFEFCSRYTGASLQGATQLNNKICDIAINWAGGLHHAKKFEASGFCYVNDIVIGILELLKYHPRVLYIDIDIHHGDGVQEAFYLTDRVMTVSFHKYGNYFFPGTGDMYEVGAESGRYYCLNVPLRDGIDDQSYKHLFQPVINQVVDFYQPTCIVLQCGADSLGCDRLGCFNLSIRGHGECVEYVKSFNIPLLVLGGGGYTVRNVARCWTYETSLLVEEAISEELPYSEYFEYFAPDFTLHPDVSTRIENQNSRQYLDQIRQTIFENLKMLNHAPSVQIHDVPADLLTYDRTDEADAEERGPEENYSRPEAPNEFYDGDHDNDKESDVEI
T1 sequence (Q9Y618 395-489 partner limits assumed): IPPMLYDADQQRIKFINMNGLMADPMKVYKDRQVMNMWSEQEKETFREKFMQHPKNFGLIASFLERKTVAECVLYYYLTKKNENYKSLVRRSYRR
Sequence of HDAC 1 (Q13547 whole entry, species assumed): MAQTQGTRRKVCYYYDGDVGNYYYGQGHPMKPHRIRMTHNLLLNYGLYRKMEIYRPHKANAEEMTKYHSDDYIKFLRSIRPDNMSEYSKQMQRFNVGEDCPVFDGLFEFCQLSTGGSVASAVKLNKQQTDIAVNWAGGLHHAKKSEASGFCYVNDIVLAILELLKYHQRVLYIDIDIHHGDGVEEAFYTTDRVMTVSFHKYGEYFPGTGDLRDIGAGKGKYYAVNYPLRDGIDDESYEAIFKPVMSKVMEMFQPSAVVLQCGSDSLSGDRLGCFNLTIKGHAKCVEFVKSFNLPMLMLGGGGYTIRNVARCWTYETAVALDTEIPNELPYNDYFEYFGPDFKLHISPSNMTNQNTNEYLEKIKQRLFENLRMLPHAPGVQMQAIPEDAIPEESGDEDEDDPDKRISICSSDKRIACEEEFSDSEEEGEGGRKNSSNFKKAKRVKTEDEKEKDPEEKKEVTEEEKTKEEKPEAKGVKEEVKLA

IC50 [1]: < 100 nM
EC50 [2]: < 100 nM
EC50 [3]: < 100 nM
IC50 [4]: < 100 nM
Compound: CN1CCN(c2ccc(-c3ccc(S(=O)(=O)N4CC=C(C(=O)NO)CC4)cc3)cc2)CC1 [Compound 29, N-hydroxyl-1-((4′-(4-methylpiperazinyl)-[1,1′-biphenyl]-4-yl)sulfonyl)-1,2,3,6-tetrahydropyridine-4-formamide]
